Measurements reported in patent US9023821B2, “Use of MicroRNA for treating diseases associated with a dysfunction of the cilia in multiciliated epithelial cells” (Centre National de la Recherche Scientifique, priority 2009, dated 2015).

Assays:
[1] = test system: human airway epithelial cells (HAECs); test: High-throughput sequencing (HTS) of miRNAs at four stages of differentiation of HAECs; settings: for Modulation (ratio of the level of intensity of expression in log2 in two stages of differentiation) measured by high-throughput sequencing, D7 − D0 / Modulation (ratio of the level of intensity of expression in log2 in two stages of differentiation) measured by high-throughput sequencing, FC − D7 / Modulation (ratio of the level of intensity of expression in log2 in two stages of differentiation) measured by high-throughput sequencing, WD − D0 / Modulation (ratio of the level of intensity of expression in log2 in two stages of differentiation) measured by high-throughput sequencing, WD − FC / Level of intensity of expression in log2 measured by high-throughput sequencing, D0 / Level of intensity of expression in log2 measured by high-throughput sequencing, D7 / Level of intensity of expression in log2 measured by high-throughput sequencing, FC / Level of intensity of expression in log2 measured by high-throughput sequencing, WD: Table VI; for Level of intensity of expression in log2 At the differentiated stage (WD) measured in HTS: healthy human airway epithelial tissue; for Level of intensity of expression in log2 measured by high-throughput sequencing, D0: stage D0; for Level of intensity of expression in log2 measured by high-throughput sequencing, D7: stage D7; for Level of intensity of expression in log2 measured by high-throughput sequencing, FC: stage FC; for Level of intensity of expression in log2 At the differentiated stage (WD) measured in HTS / Level of intensity of expression in log2 measured by high-throughput sequencing, WD: stage WD
Summary of the method: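 Differentiation time course at air-liquid interface: 0, 7, ~14 (first cilia) and ~21 days (fully differentiated). Sequencing counts per strand were normalized to 10^6 sequences and analysed by linear model with empirical Bayesian moderation.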

[2] = test system: human airway epithelial cells (HAECs); test: Agilent miRNA chips, miRNA expression at four stages of differentiation of HAECs; settings: for Modulation (ratio of the level of intensity of expression in log2 in two stages of differentiation) measured with the Agilent chips, D7 − D0 / Modulation (ratio of the level of intensity of expression in log2 in two stages of differentiation) measured with the Agilent chips, FC − D7 / Modulation (ratio of the level of intensity of expression in log2 in two stages of differentiation) measured with the Agilent chips, WD − D0 / Modulation (ratio of the level of intensity of expression in log2 in two stages of differentiation) measured with the Agilent chips, WD − FC / Level of intensity of expression in log2 measured with the Agilent chips, D0 / Level of intensity of expression in log2 measured with the Agilent chips, D7 / Level of intensity of expression in log2 measured with the Agilent chips, FC / Level of intensity of expression in log2 measured with the Agilent chips, WD: Table VI; for Modulation (ratio of the level of intensity of expression in log2 at two stages of differentiation), FC − D7 / Modulation (ratio of the level of intensity of expression in log2 at two stages of differentiation), WD − FC: Agilent miRNA chips, Table V; for Level of intensity of expression in log2 measured with the Agilent chips, D0: stage D0; for Level of intensity of expression in log2 measured with the Agilent chips, D7: stage D7; for Level of intensity of expression in log2 measured with the Agilent chips, FC: stage FC; for Level of intensity of expression in log2 measured with the Agilent chips, WD: stage WD
Summary of the method: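 RNA from the same patients used for small-RNA sequencing was labelled and hybridized to a Human miRNA Microarray v2 (866 human and 89 human viral miRNAs, covering miRBase v.12.0) with the kit's labelling and hybridization protocol, giving miRNA expression profiles to compare against the sequencing data.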

[3] = test system: basal cells and pyramidal cells of the airway epithelium; test: miRNA expression in sorted basal cells versus pyramidal cells (ciliated + secretory), HTS and Agilent chips; parameters: species or system human; settings: for Modulation of expression of the miRNAs in pyramidal cells (323(−)) relative to basal cells 323(+): HTS and Agilent chips; for Intensity of the level of expression in log2 in pyramidal cells (323(−)): pyramidal cells (ciliated + secretory)
Summary of the method: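 Sorted basal versus ciliated/mucus-secreting cells; markers CD151 and tissue factor; donors n=3; miRNA by Agilent chip or HTS.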

Substance | Modulation (ratio of the level of intensity of expression in log2 in two stages of differentiation) measured by high-throughput sequencing, D7 − D0 [1] [log2] | Modulation (ratio of the level of intensity of expression in log2 in two stages of differentiation) measured by high-throughput sequencing, FC − D7 [1] [log2] | Modulation (ratio of the level of intensity of expression in log2 in two stages of differentiation) measured by high-throughput sequencing, WD − D0 [1] [log2] | Modulation (ratio of the level of intensity of expression in log2 in two stages of differentiation) measured by high-throughput sequencing, WD − FC [1] [log2] | Level of intensity of expression in log2 At the differentiated stage (WD) measured in HTS [1] [log2] | Level of intensity of expression in log2 measured by high-throughput sequencing, D0 [1] [log2] | Level of intensity of expression in log2 measured by high-throughput sequencing, D7 [1] [log2] | Level of intensity of expression in log2 measured by high-throughput sequencing, FC [1] [log2] | Level of intensity of expression in log2 measured by high-throughput sequencing, WD [1] [log2] | Modulation (ratio of the level of intensity of expression in log2 in two stages of differentiation) measured with the Agilent chips, D7 − D0 [2] [log2] | Modulation (ratio of the level of intensity of expression in log2 at two stages of differentiation), FC − D7 [2] [log2] | Modulation (ratio of the level of intensity of expression in log2 in two stages of differentiation) measured with the Agilent chips, FC − D7 [2] [log2] | Modulation (ratio of the level of intensity of expression in log2 in two stages of differentiation) measured with the Agilent chips, WD − D0 [2] [log2] | Modulation (ratio of the level of intensity of expression in log2 at two stages of differentiation), WD − FC [2] [log2] | Modulation (ratio of the level of intensity of expression in log2 in two stages of differentiation) measured with the Agilent chips, WD − FC [2] [log2] | Level of intensity of expression in log2 measured with the Agilent chips, D0 [2] [log2] | Level of intensity of expression in log2 measured with the Agilent chips, D7 [2] [log2] | Level of intensity of expression in log2 measured with the Agilent chips, FC [2] [log2] | Level of intensity of expression in log2 measured with the Agilent chips, WD [2] [log2] | Modulation of expression of the miRNAs in pyramidal cells (323(−)) relative to basal cells 323(+) [3] | other results
hsa-miR-425: human miRNA, SEQ ID No. 44 (AAUGACACGAUCACUCCCGUUGA; expressed or natural sequence; listed as Homo sapiens) | 0.42 | 0.74 | 1.12 | −0.04 | 9.53 | 10.58 | 11.01 | 11.75 | 11.70 | 1.59 | 0.19 | 0.19 | 1.57 | −0.21 | −0.21 | 6.61 | 8.21 | 8.39 | 8.18 | 0.70 | Intensity of the level of expression in log2 in basal cells (323(+)) [3]: 4.52 log2; Intensity of the level of expression in log2 in pyramidal cells (323(−)) [3]: 5.22 log2
hsa-miR-429: human miRNA, SEQ ID No. 45 (UAAUACUGUCUGGUAAAACCGU; expressed or natural sequence; listed as Homo sapiens) | 0.42 | 0.14 | 1.30 | 0.74 | 15.11 | 8.23 | 8.65 | 8.79 | 9.53 | 1.71 | 0.14 | 0.14 | 1.95 | 0.10 | 0.10 | 7.97 | 9.68 | 9.82 | 9.93 | −0.31 | Intensity of the level of expression in log2 in basal cells (323(+)) [3]: 6.92 log2; Intensity of the level of expression in log2 in pyramidal cells (323(−)) [3]: 6.61 log2
